Source: patent US6410249B1, “Odorant receptors” (priority 1999, dated 2002)
Entries after “also recorded” stand apart in the source; their conditions may differ. Read-outs that look alike come from different tables or passages of the source.

Assays:
receptor 5.24 [1] = molecular target: T1, receptor 5.24 (Carassius auratus, UniProt Q9PW88); experiment: evoked currents in Xenopus oocytes expressing receptor 5.24 (two-electrode voltage clamp); type: cell-based, goldfish
T1 construct: The receptor 5.24 full length cDNA detects 1-2 bands in genomic DNA blots; expressed in transfected cells; host or cells: HEK 293 cells expressing SV40 large T antigen (293-TSA)
T1 sequence (Q9PW88 25-877): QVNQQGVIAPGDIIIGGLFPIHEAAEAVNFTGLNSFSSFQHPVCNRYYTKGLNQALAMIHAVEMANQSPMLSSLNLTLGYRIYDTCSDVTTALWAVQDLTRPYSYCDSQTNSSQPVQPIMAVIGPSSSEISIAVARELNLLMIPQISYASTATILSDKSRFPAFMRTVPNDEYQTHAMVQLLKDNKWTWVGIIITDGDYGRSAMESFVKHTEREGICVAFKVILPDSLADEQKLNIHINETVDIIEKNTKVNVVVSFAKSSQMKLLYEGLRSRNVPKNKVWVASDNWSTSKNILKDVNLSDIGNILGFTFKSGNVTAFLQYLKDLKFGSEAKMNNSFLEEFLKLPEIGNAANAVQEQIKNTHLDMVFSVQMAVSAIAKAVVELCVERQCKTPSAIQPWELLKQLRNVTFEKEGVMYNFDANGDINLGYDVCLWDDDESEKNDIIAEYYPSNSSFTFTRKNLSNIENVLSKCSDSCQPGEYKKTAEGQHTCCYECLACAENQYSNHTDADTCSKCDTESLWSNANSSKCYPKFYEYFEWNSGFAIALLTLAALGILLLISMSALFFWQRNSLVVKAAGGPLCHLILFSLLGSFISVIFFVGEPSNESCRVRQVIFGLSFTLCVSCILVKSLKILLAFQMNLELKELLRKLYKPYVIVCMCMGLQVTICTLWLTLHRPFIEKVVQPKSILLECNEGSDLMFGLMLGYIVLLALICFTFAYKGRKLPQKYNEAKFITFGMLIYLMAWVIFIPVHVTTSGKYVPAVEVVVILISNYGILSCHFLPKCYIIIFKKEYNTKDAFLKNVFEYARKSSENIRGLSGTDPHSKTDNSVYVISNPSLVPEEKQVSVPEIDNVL
Source text: Identification by Expression Cloning of a cDNA Encoding a Goldfish Odorant Receptor. RNA was synthesized from pools of goldfish olfactory cDNA clones (900 individual clones per pool) and injected into Xenopus oocytes together with synthetic RNAs encoding GIRK and Gaolf. Oocytes were then screened for responses upon exposure to odorant cocktails containing amino acids, bile acids, or sex pheromones. […] The response to amino acids was biphasic, beginning with an oscillating inward current above the basal inward K+ current, followed by a decline in inward current to below the basal level. Such a biphasic effect is thought to be caused by Gaq-mediated activation of phospholipase C (responsible for the intial inward current via IP3) and protein kinase C (leading to suppression of the K+ current through phosphorylation of GIRK channel subunits) (Sharon et al., 1997).
Iterative subdivision of pool 19 by sib-selection allowed the isolation of a single clone encoding a receptor, designated receptor 5.24.
Oocytes were removed from anesthetized Xenopus laevis and treated with collagenase. Forty nanograms of cRNA from each cDNA library pool (˜40 pg cRNA/clone) was injected per oocyte, together with cRNAs encoding Gaolf and the GIRK subunits Kir 3.1 and Kir 3.4 (˜30 pg each). Approximately 30 pools were assayed before these primary screens were halted. Injected oocytes were incubated at 17° C. for over 80 hours prior to electrophysiological recordings. Recordings were performed by two-electrode voltage clamping using an Axoclamp-2A amplifier (Axon Instruments) or a Dagan CA-1 amplifier (Dagan Corp.). Data acquisition and analysis were performed using pCLAMP software (Axon Instruments). Membrane potential was held at −80 mV. For trials involving GIRK, oocytes were first perfused with Na-MBSH (88 mM NaCl, 1 mM KCl, 2.4 mM NaHCO3, 10 mM Hepes, pH 7.5, 0.82 mM MgSO4[7H2O], 0.33 mM Ca[NO3]2[4H2O], 0.41 mM CaCl2[2H2O]), and then switched into K-MBSH, which contains elevated K+ (88 mM KCl, 1 mM NaCl) until the basal current had stabilized (˜45 seconds) before challenging with agonist. Recordings on oocytes injected with receptor 5.24 in the absence of Gaolf and/or GIRK subunits were performed in Na-MBSH. Oocytes were exposed to solutions containing different agonists by switching bathing solutions with an 8 channel valve (Hamilton).

receptor 5.24 [2] = molecular target: T1, receptor 5.24; experiment: biochemical; type: binding; details: for binding to receptor 5.24, in words: comparative binding studies
Experimental: Structure-Activity Properties of Compounds Interacting with the Cloned Goldfish Amino Acid Odorant Receptor. An understanding of how odorant receptors are used to encode olfactory information requires a characterization of the odorant specificities of individual receptor types. We therefore wished to determine the relative specificity of receptor 5.24 for structurally related ligands. […] Briefly, 3H-arginine binding to membranes from receptor 5.24-expressing HEK 293 cells was assayed in the absence or presence of varying concentrations of competitor ligands.
Mammalian Cell Culture and DNA Transfections. For cell transfections, the receptor 5.24 cDNA insert was subcloned into two expression vectors: CMVI, which utilizes a human cytomegalovirus (CMV) immediate early promoter-enhancer plus the CMV intron A sequence to drive expression, and 608RX-2.2L, which is similar to CMVI except the cDNA insert is followed by an internal ribosome entry site (IRES)—enhanced green fluorescent protein (EGFP) coding sequence; 608RX-2.2L also contains a puromycin resistance gene. For transient assays, HEK 293 cells expressing the SV40 large T antigen (293 TSA cells) were transfected with the CMVI-receptor 5.24 or CMVI control plasmid using lipofectamine (Life Technologies) and harvested at 48 hours for membrane preparations. For stable cell lines, 293-TSA cells were transfected with the 608RX-2.2L-receptor 5.24 plasmid or a control 608RX-2.2L plasmid and selected in puromycin. Colonies showing high levels of EGFP fluorescence (as judged by epifluorescence microscopy) were picked, expanded, and screened for 3H-L-arginine binding (see below).
Membrane Preparations and Ligand Binding Assays. Membranes for ligand binding assays were prepared by washing confluent cells three times with phosphate buffered saline (PBS), detaching cells with a PBS-based enzyme-free dissociation solution, and resuspending cells in ice-cold 5.0 mM Hepes, pH 7.4, 1.0 mM EDTA, 1.0 μg/ml leupeptin, 0.5 mM PMSF. All subsequent manipulations were performed on ice. After a 30 min incubation, the cell suspension was homogenized and centrifuged at 100,000×g for 30 min. Cell membrane pellets were washed twice by resuspension and centrifugation in binding buffer (20 mM Hepes, pH 7.4, 1.0 mM EDTA, 2.0 mM MgCl2, 1.0 μg/ml leupeptin, 0.5 mM PMSF), resuspended in binding buffer, and frozen at −80° C.
Saturation binding assays were performed using 20-25 μg of membrane protein in a final volume of 100 μl binding buffer and increasing concentrations of [2,3-3H] L-arginine (specific activity=40 Ci/mmol; Dupont NEN). Non-specific binding was measured in the presence of 500 μM unlabeled L-arginine. Competition assays were performed with 500 nM [2,3-3H] L-arginine and increasing concentrations of competitor ligands. All incubations were performed at 4° C. for 60 min and terminated by rapid filtration through Whatman GF/C filters pretreated with ice cold 0.1% polyethyleneimine. Filters were washed three times with 4.0 ml ice cold 20 mM Hepes, pH 7.4, and retained radioactivity was measured by scintillation counting.

[3] = displacement of 3H-L-arginine from membranes of HEK 293 cells expressing receptor 5.24, read-out: Ki (binding affinity)
[4] = read-out: Ki (binding affinity), displacement of 3H-L-arginine from membranes of HEK 293 cells expressing receptor 5.24
[5] = 3H-arginine displacement, read-out: Ki

Row | Compound | activation of receptor 5.24 (evoked currents), in words (receptor 5.24 [1]) | Ki (receptor 5.24 [2]; [3]) [µM] | binding to receptor 5.24, in words (receptor 5.24 [2]) | further results
1 | C[C@@H](O)[C@H](N)C(=O)O [L-Threonine] | smaller responses | 3.2 | – | –
2 | N[C@@H](Cc1ccccc1)C(=O)O [L-Phenylalanine] | little or no response | 5.8 | low affinities | –
3 | NC(=O)C[C@H](N)C(=O)O [L-Asparagine] | – | 2.1 | – | –
4 | NCCCCN [Putrescine] | – | > 1000 | – | –
5 | NCC(=O)O [L-Glycine] | – | 3.9 | – | –
6 | NC(=O)NCCC[C@H](N)C(=O)O [L-Citruline] | – | 0.96 | – | –
7 | CC(C)C[C@H](N)C(=O)O [L-Leucine] | – | 4.4 | – | –
8 | NCCCC(=O)O [γ-Aminobutyric Acid (GABA), γ-Aminobutyric Acid] | – | – | no specific interactions | Ki (receptor 5.24 [2]): > 1000 µM; Ki (receptor 5.24 [2]; [4]): > 1000 µM
9 | C[C@H](N)C(=O)O [L-Alanine] | smaller responses | 5.6 | – | –
10 | NCCC[C@H](N)C(=O)O [L-Ornithine] | – | – | – | Ki (receptor 5.24 [2]; [5]): 1 µM
11 | N[C@@H](Cc1c[nH]c2ccccc12)C(=O)O [L-Tryptophan] | little or no response | 4.1 | low affinities | –
12 | CC[C@H](C)[C@H](N)C(=O)O [L-Isoleucine] | smaller responses | 2.2 | – | –
13 | NC(=O)CC[C@H](N)C(=O)O [L-Glutamine] | – | 0.32 | – | –
14 | CSCC[C@H](N)C(=O)O [L-Methionine] | smaller responses | 0.81 | – | –
15 | N[C@@H](CCC(=O)O)C(=O)O [L-Glutamate] | – | 6.7 | – | activation of receptor 5.24 (evoked currents), in words (receptor 5.24 [1]; listed as Glutamate): does not appear to activate; activation of receptor 5.24 (evoked currents), in words (receptor 5.24 [1]; listed as glutamate): little or no response; also recorded: not activated; fold decrease in affinity / displacement relative to arginine or lysine (receptor 5.24 [2]; 3H-arginine displacement): approximately 80 fold
16 | N[C@@H](Cc1ccc(O)cc1)C(=O)O [L-Tyrosine] | little or no response | – | low affinities | Ki (receptor 5.24 [2]): 16 µM
17 | O=C(O)[C@@H]1CCCN1 [L-Proline] | – | 58 | low affinities | –
18 | COC(=O)[C@@H](N)CCCNC(=N)N[N+](=O)[O-] [L-NAME] | – | 1.02 | modest affinity | –
19 | NCCS(=O)(=O)O [Taurine] | – | > 1000 | no specific interactions | Ki (receptor 5.24 [2]; [5]): > 1000 µM
20 | NCCC(=O)N[C@@H](Cc1cnc[nH]1)C(=O)O [Carnosine] | – | > 1000 | no specific interactions | Ki (receptor 5.24 [2]; [5]): > 1000 µM
21 | N[C@@H](Cc1c[nH]cn1)C(=O)O [L-Histidine] | little or no response | – | low affinities | Ki (receptor 5.24 [2]): 13 µM
22 | CC(C)[C@H](N)C(=O)O [L-Valine] | – | 6.2 | – | –
23 | N[C@@H](CS)C(=O)O [L-Cysteine] | – | 0.53 | – | –
24 | [Ca+2] [calcium] | not activated | – | – | –
25 | N=C(N)NCCCCN [Agmatine] | – | – | displaces 3H-arginine very poorly; also recorded: essentially no binding | Ki (receptor 5.24 [2]): > 1000 µM; Ki (receptor 5.24 [2]; [4]): > 1000 µM
26 | NCCCCCN [Cadaverine] | – | > 1000 | essentially no binding | Ki (receptor 5.24 [2]; [5]): > 1000 µM
27 | N[C@@H](CC(=O)O)C(=O)O [L-Aspartate] | – | – | – | Ki (receptor 5.24 [2]): 27 µM
28 | N=C(N)NCCCC[C@H](N)C(=O)O [L-Homoarginine] | – | – | – | Ki (receptor 5.24 [2]): 1.63 µM
